pIC50: −log10 of the molar value.
System: B cell receptor-mediated activation of B cells in human blood (CD69 expression)
Assay: Inhibition of B cell activation in whole blood measured by CD69 expression
Type: cell-based
Conditions: anti-IgM stimulation, 20 h, 50% decrease of CD69-positive cells that are also CD20-positive
Description: Inhibition of B Cell Activation in Whole Blood Measured by CD69 Expression
A procedure to test the ability of Btk inhibitors to suppress B cell receptor-mediated activation of B cells in human blood is as follows:
Human whole blood (HWB) is obtained from healthy volunteers, with the following restrictions: 24 hr drug-free, non-smokers. Blood is collected by venipuncture into Vacutainer tubes anticoagulated with sodium heparin. Test compounds are diluted to ten times the desired starting drug concentration in PBS (20×), followed by three-fold serial dilutions in 10% DMSO in PBS to produce a nine point dose-response curve. 5.5 μl of each compound dilution is added in duplicate to a 2 ml 96-well V bottom plate (Analytical Sales and Services, #59623-23); 5.5 μl of 10% DMSO in PBS is added to control and no-stimulus wells. HWB (100 μl) is added to each well, and after mixing the plates are incubated at 37 C, 5% CO2, 100% humidity for 30 minutes. Goat F(ab′)2 anti-human IgM (Southern Biotech, #2022-14) (10 μl of a 500 μg/ml solution, 50 μg/ml final concentration) is added to each well (except the no-stimulus wells) with mixing and the plates are incubated for an additional 20 hours.
At the end of the 20 hour incubation, samples are incubated with florescent-probe-labeled anti-bodies (15 μl PE Mouse anti-Human CD20, BD Pharmingen, #555623, and/or 20 ul APC Mouse anti-Human CD69, BD Pharmingen #555533) for 30 minutes, at 37 C, 5% CO2, 100% humidity. Included are induced control, unstained and single stains for compensation adjustments and initial voltage settings. Samples are then lysed with 1 ml of 1× Pharmingen Lyse Buffer (BD Pharmingen #555899), and plates are centrifuged at 1800 rpm for 5 minutes. Supernatants are removed via suction and the remaining pellets are lysed again with another 1 ml of 1× Pharmingen Lyse Buffer, and plates are spun down as before. Supernatants are aspirated and remaining pellets are washed in FACs buffer (PBS+1% FBS). After a final spin, the supernantants are removed and pellets are resuspended in 180 μl of FACs buffer. Samples are transferred to a 96 well plate suitable to be run on the HTS 96 well system on the BD LSR II flow cytometer.
Using appropriate excitation and emission wavelengths for the fluorophores used, data are acquired and percent positive cell values are obtained using Cell Quest Software. Results are initially analyzed by FACS analysis software (Flow Jo). […] The IC50 values are calculated using XLfit software version 3, equation 201.

Row | pIC50 | Structure (SMILES)
1 | 7.64 | Cn1cc(-c2cccc(-n3ccc4cc(C5CC5)cc(F)c4c3=O)c2CO)cc(Nc2ccc(C(=O)N3CCOCC3)cn2)c1=O [Example I-51, 6-Cyclopropyl-8-fluoro-2-(2-hydroxymethyl-3-{1-methyl-5-[5-(morpholine-4-carbonyl)-pyridin-2-ylamino]-6-oxo-1,6-dihydro-pyridin-3-yl}-phenyl)-2H-isoquinolin-1-one]
2 | 7.70 | CC(C)NCc1ccc(Nc2cc(-c3cccc(-n4ccc5cc(C6CC6)cc(F)c5c4=O)c3CO)cn(C)c2=O)nc1 [Example I-78, 6-Cyclopropyl-8-fluoro-2-(2-hydroxymethyl-3-{5-[5-(isopropylamino-methyl)-pyridin-2-ylamino]-1-methyl-6-oxo-1,6-dihydro-pyridin-3-yl}-phenyl)-2H-isoquinolin-1-one]
3 | 6.66 | CCc1ccc(Nc2cc(-c3cccc(-n4ncc5cc(C(C)(C)C)cc(F)c5c4=O)c3CO)cn(C)c2=O)nc1 [Example I-33, 6-tert-Butyl-2-{3-[5-(5-ethyl-pyridin-2-ylamino)-1-methyl-6-oxo-1,6-dihydro-pyridin-3-yl]-2-hydroxymethyl-phenyl}-8-fluoro-2H-phthalazin-1-one]
4 | 5.39 | Cn1cc(-c2cccc(N3CCc4cc(C5CC5)cc(C#N)c4C3=O)c2CO)cc(Nc2ccc(S(C)(=O)=O)cn2)c1=O [Example I-13, 6-Cyclopropyl-2-{2-hydroxymethyl-3-[5-(5-methanesulfonyl-pyridin-2-ylamino)-1-methyl-6-oxo-1,6-dihydro-pyridin-3-yl]-phenyl}-1-oxo-1,2,3,4-tetrahydro-isoquinoline-8-carbonitrile]
5 | 8.00 | CN1CC(Oc2ccc(Nc3cc(-c4cccc(-n5ncc6cc(C(C)(C)C)cc(F)c6c5=O)c4CO)cn(C)c3=O)nc2)C1 [Example I-30, 6-tert-Butyl-8-fluoro-2-(2-hydroxymethyl-3-{1-methyl-5-[5-(1-methyl-azetidin-3-yloxy)-pyridin-2-ylamino]-6-oxo-1,6-dihydro-pyridin-3-yl}-phenyl)-2H-phthalazin-1-one]
6 | 7.43 | COCCNCc1ccc(Nc2cc(-c3cccc(-n4ccc5cc(C6CC6)cc(F)c5c4=O)c3CO)cn(C)c2=O)nc1 [Example I-75, 6-Cyclopropyl-8-fluoro-2-[2-hydroxymethyl-3-(5-{5-[(2-methoxy-ethylamino)-methyl]-pyridin-2-ylamino}-1-methyl-6-oxo-1,6-dihydro-pyridin-3-yl)-phenyl]-2H-isoquinolin-1-one]
7 | 7.70 | Cn1cc(-c2cccc(-n3ncc4cc(C(C)(C)C)cc(F)c4c3=O)c2CO)nc(Nc2cnn(CC(F)F)c2)c1=O [Example I-84, 6-tert-Butyl-2-(3-{6-[1-(2,2-difluoro-ethyl)-1H-pyrazol-4-ylamino]-4-methyl-5-oxo-4,5-dihydro-pyrazin-2-yl}-2-hydroxymethyl-phenyl)-8-fluoro-2H-phthalazin-1-one]
8 | 7.70 | CCNCc1ccc(Nc2cc(-c3cccc(-n4ccc5cc(C6CC6)cc(F)c5c4=O)c3CO)cn(C)c2=O)nc1 [Example I-77, 6-Cyclopropyl-2-{3-[5-(5-ethylaminomethyl-pyridin-2-ylamino)-1-methyl-6-oxo-1,6-dihydro-pyridin-3-yl]-2-hydroxymethyl-phenyl}-8-fluoro-2H-isoquinolin-1-one]
9 | 7.85 | CN1CCN(c2ccc(Nc3cc(-c4cccc(-n5ccc6cc(C7CC7)cc(F)c6c5=O)c4CO)cn(C)c3=O)nc2)CC1 [Example I-54, 6-Cyclopropyl-8-fluoro-2-(2-hydroxymethyl-3-{1-methyl-5-[5-(4-methyl-piperazin-1-yl)-pyridin-2-ylamino]-6-oxo-1,6-dihydro-pyridin-3-yl}-phenyl)-2H-isoquinolin-1-one]
10 | 7.37 | CCN1CCN(c2ccc(Nc3cc(-c4cccc(N5CCc6cc(C7CC7)cc(F)c6C5=O)c4CO)cn(C)c3=O)nc2)CC1 [Example I-12, 6-Cyclopropyl-2-(3-{5-[5-(4-ethyl-piperazin-1-yl)-pyridin-2-ylamino]-1-methyl-6-oxo-1,6-dihydro-pyridin-3-yl}-2-hydroxymethyl-phenyl)-8-fluoro-3,4-dihydro-2H-isoquinolin-1-one]
11 | 8.22 | CCNC(C)(C)c1ccc(Nc2cc(-c3cccc(-n4ncc5cc(C(C)(C)C)cc(F)c5c4=O)c3CO)cn(C)c2=O)nc1 [Example I-47, 6-tert-Butyl-2-(3-{5-[5-(1-ethylamino-1-methyl-ethyl)-pyridin-2-ylamino]-1-methyl-6-oxo-1,6-dihydro-pyridin-3-yl}-2-hydroxymethyl-phenyl)-8-fluoro-2H-phthalazin-1-one]
12 | 8.22 | Cn1cc(-c2cccc(-n3ccc4cc(C(C)(C)O)cc(F)c4c3=O)c2CO)cc(Nc2ccc(N3CCC(C)(O)CC3)cn2)c1=O [Example I-58, 8-Fluoro-6-(1-hydroxy-1-methyl-ethyl)-2-{2-hydroxymethyl-3-[5-(4-hydroxy-4-methyl-3,4,5,6-tetrahydro-2H-[1,3′]bipyridinyl-6′-ylamino)-1-methyl-6-oxo-1,6-dihydro-pyridin-3-yl]-phenyl}-2H-isoquinolin-1-one]
13 | 7.74 | Cn1cc(-c2cccc(-n3ccc4cc(C5CC5)cc(F)c4c3=O)c2CO)cc(Nc2ccc(N3CCC(C)(O)CC3)cn2)c1=O [Example I-57, 6-Cyclopropyl-8-fluoro-2-{2-hydroxymethyl-3-[5-(4-hydroxy-4-methyl-3,4,5,6-tetrahydro-2H-[1,3′]bipyridinyl-6′-ylamino)-1-methyl-6-oxo-1,6-dihydro-pyridin-3-yl]-phenyl}-2H-isoquinolin-1-one]
14 | 7.72 | Cn1cc(-c2cccc(-n3ccc4cc(C(C)(C)C#N)cc(F)c4c3=O)c2CO)cc(Nc2ccc(OCCO)cn2)c1=O [Example I-65, 2-[8-Fluoro-2-(3-{5-[5-(2-hydroxy-ethoxy)-pyridin-2-ylamino]-1-methyl-6-oxo-1,6-dihydro-pyridin-3-yl}-2-hydroxymethyl-phenyl)-1-oxo-1,2-dihydro-isoquinolin-6-yl]-2-methyl-propionitrile]
15 | 7.04 | Cn1cc(-c2cccc(-n3ncc4cc(C(C)(C)C)cc(F)c4c3=O)c2CO)cc(Nc2ccc(CO)cn2)c1=O [Example I-26, 6-tert-Butyl-8-fluoro-2-{2-hydroxymethyl-3-[5-(5-hydroxymethyl-pyridin-2-ylamino)-1-methyl-6-oxo-1,6-dihydro-pyridin-3-yl]-phenyl}-2H-phthalazin-1-one]
16 | 7.54 | CC(O)c1ccc(Nc2cc(-c3cccc(-n4ccc5cc(C6CC6)cc(F)c5c4=O)c3CO)cn(C)c2=O)nc1 (centres unmarked) [Example I-74, 6-Cyclopropyl-8-fluoro-2-(3-{5-[5-(1-hydroxy-ethyl)-pyridin-2-ylamino]-1-methyl-6-oxo-1,6-dihydro-pyridin-3-yl}-2-hydroxymethyl-phenyl)-2H-isoquinolin-1-one]
17 | 6.66 | CCn1ccc(Nc2cc(-c3cccc(-n4ncc5cc(C(C)(C)C)cc(F)c5c4=O)c3CO)cn(C)c2=O)nc1=O [Example I-37, 6-tert-Butyl-2-{3-[5-(1-ethyl-2-oxo-1,2-dihydro-pyrimidin-4-ylamino)-1-methyl-6-oxo-1,6-dihydro-pyridin-3-yl]-2-hydroxymethyl-phenyl}-8-fluoro-2H-phthalazin-1-one]
18 | 7.41 | CN1CC(Oc2ccc(Nc3cc(-c4cccc(-n5ccc6cc(C7CC7)cc(F)c6c5=O)c4CO)cn(C)c3=O)nc2)C1 [Example I-71, 6-Cyclopropyl-8-fluoro-2-(2-hydroxymethyl-3-{1-methyl-5-[5-(1-methyl-azetidin-3-yloxy)-pyridin-2-ylamino]-6-oxo-1,6-dihydro-pyridin-3-yl}-phenyl)-2H-isoquinolin-1-one]
19 | 7.24 | CC(O)Cn1cc(Nc2nc(-c3cccc(-n4ccc5cc(C6CC6)cc(F)c5c4=O)c3CO)cn(C)c2=O)cn1 (centres unmarked) [Example I-82, 6-Cyclopropyl-8-fluoro-2-(2-hydroxymethyl-3-{6-[1-(2-hydroxy-propyl)-1H-pyrazol-4-ylamino]-4-methyl-5-oxo-4,5-dihydro-pyrazin-2-yl}-phenyl)-2H-isoquinolin-1-one]
20 | 7.29 | Cn1cc(-c2cccc(-n3ccc4cc(C5(C)CC5)cc(F)c4c3=O)c2CO)cc(Nc2ccc(S(C)(=O)=O)cn2)c1=O [Example I-61, 8-Fluoro-2-{2-hydroxymethyl-3-[5-(5-methanesulfonyl-pyridin-2-ylamino)-1-methyl-6-oxo-1,6-dihydro-pyridin-3-yl]-phenyl}-6-(1-methyl-cyclopropyl)-2H-isoquinolin-1-one]
